Values of other authors as cited in patent publication US5434174A, “Isoxazole derivatives for the treatment of irritable bowel syndrome” (priority 1993, dated 1995).

Conditions: IBS therapy; cited from earlier work

## CCN(CC)CCOC(=O)C1(C2CCCCC2)CCCCC1 [Bentyl]
  side effects: serious side effects
